Data on eight compounds can be found in PubChem BioAssay (NCI).

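Values below derive from 48-hour exposures of cells grown in 96-well plates, with endpoints linearly interpolated between the two concentrations bracketing the appropriate inhibition level. GI50 marks 50% less growth. Definition used: TGI = concentration required for complete inhibition of growth.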 Where only a bound is given, the exact number is not on record here.

Among the test systems are SF-539 CNS; SK-OV-3 ovarian; MALME-3M melanoma; HL-60(TB) leukemia; SNB-19 CNS; LOX IMVI melanoma; SN12C renal; HCT-116 colon; TK-10 renal; SK-MEL-5 melanoma.
Experiment in all cases: DTP human tumour cell line panel, 48 h

As to `COc1cc(/C=C2\C(=O)Nc3cccc(Cl)c32)cc(OC)c1OC`, the GI50 in the assay with SF-539 CNS was above 100 µM; in the assay on SK-OV-3 ovarian it was above 100 µM; in the assay on MALME-3M melanoma it was above 100 µM; with HL-60(TB) leukemia, 11 µM; in the assay on SNB-19 CNS, 60.1 µM; in the assay on LOX IMVI melanoma, above 100 µM. Moreover, the GI50 in the assay on SN12C renal, in the assay on HCT-116 colon, in the assay on TK-10 renal and with SK-MEL-5 melanoma was above 100 µM in each case. In addition, the total growth inhibition concentration (TGI) with SF-539 CNS, with SK-OV-3 ovarian, with MALME-3M melanoma, with HL-60(TB) leukemia, in the assay with SNB-19 CNS and with LOX IMVI melanoma was above 100 µM each time. For the same compound, the TGI with SN12C renal, in the assay on HCT-116 colon, with TK-10 renal and in the assay with SK-MEL-5 melanoma was above 100 µM in each case.

With `CNCCCNCCCN1C(=O)c2ccc3c4c(ccc(c24)C1=O)C(=O)N(CCCNCc1ccccc1OC)C3=O`, the GI50 in the assay on SF-539 CNS was 0.782 µM; in the assay with SK-OV-3 ovarian, 2.95 µM; with MALME-3M melanoma, 0.633 µM; in the assay with HL-60(TB) leukemia, 2 µM; in the assay with SNB-19 CNS, 1.68 µM; in the assay with LOX IMVI melanoma, 1.52 µM. Moreover, the GI50 is 1.46 µM with SN12C renal, 0.27 µM with HCT-116 colon, 2.58 µM in the assay on TK-10 renal and 1.1 µM in the assay with SK-MEL-5 melanoma. Moreover, the TGI with SF-539 CNS worked out at 2.29 µM; with SK-OV-3 ovarian, 23.7 µM; in the assay with MALME-3M melanoma it was 1.96 µM; in the assay with HL-60(TB) leukemia, 7.09 µM; in the assay with SNB-19 CNS it was 11.1 µM; in the assay on LOX IMVI melanoma, 9.75 µM. Besides, the TGI with SN12C renal amounted to 3.41 µM; in the assay on HCT-116 colon it was 1.21 µM; in the assay on TK-10 renal, 14.1 µM; in the assay with SK-MEL-5 melanoma, 2.32 µM.

Take `C=C1C(=O)O[C@H]2[C@H]1CC/C(Cn1cc(-c3cc(C)c(C)cc3C)nn1)=C\CC[C@@]1(C)O[C@@H]21`: the GI50 in the assay on SF-539 CNS is 1.16 µM; in the assay on SK-OV-3 ovarian, 11.7 µM; in the assay on MALME-3M melanoma, 1.43 µM; in the assay on HL-60(TB) leukemia, 0.643 µM; in the assay on SNB-19 CNS, 3.9 µM; in the assay on LOX IMVI melanoma, 0.725 µM. The GI50 in the assay with SN12C renal was 1.49 µM; in the assay with HCT-116 colon, 0.336 µM; with TK-10 renal, 1.46 µM; in the assay on SK-MEL-5 melanoma, 1.66 µM. Moreover, the TGI in the assay with SF-539 CNS stood at 2.43 µM; in the assay with SK-OV-3 ovarian it was 23.9 µM; with MALME-3M melanoma it was 3 µM; in the assay with HL-60(TB) leukemia, 3.69 µM; with SNB-19 CNS, 15.9 µM; in the assay on LOX IMVI melanoma, 2.1 µM. Also, the TGI amounted to 3.41 µM in the assay with SN12C renal, 1.06 µM with HCT-116 colon, 2.83 µM with TK-10 renal and 3.12 µM in the assay on SK-MEL-5 melanoma.

Turning to `COc1cc(/C=C(\OC(C)=O)c2ccc3c(c2)OCO3)cc(OC)c1OC`, the TGI with SF-539 CNS was 38.8 µM; in the assay on SK-OV-3 ovarian, 66.8 µM; with MALME-3M melanoma it was 59.7 µM; in the assay with HL-60(TB) leukemia, above 100 µM; with SNB-19 CNS, above 100 µM; in the assay with LOX IMVI melanoma, 31.3 µM. The TGI in the assay with SN12C renal is 88.1 µM; in the assay on HCT-116 colon, 38.9 µM; in the assay with TK-10 renal, above 100 µM; in the assay on SK-MEL-5 melanoma it was 24.5 µM.

Regarding `N#CC1C2CCC3(CC2CCN1C(=O)c1ccccc1)OCCO3` (stereo not given), the total growth inhibition concentration (TGI) in the assay with SF-539 CNS, in the assay with SK-OV-3 ovarian, with MALME-3M melanoma, in the assay with HL-60(TB) leukemia, in the assay with SNB-19 CNS and with LOX IMVI melanoma was above 100 µM in each case. For the same compound, the TGI in the assay on SN12C renal, with HCT-116 colon, in the assay with TK-10 renal and with SK-MEL-5 melanoma was above 100 µM each time.

Turning to `COc1ccccc1-c1cc(=O)c2ccc(OC)c(OC)c2o1`, the TGI in the assay on SF-539 CNS, in the assay on SK-OV-3 ovarian, with MALME-3M melanoma, in the assay with HL-60(TB) leukemia, with SNB-19 CNS and in the assay on LOX IMVI melanoma was above 100 µM throughout. Further, the TGI with SN12C renal, in the assay with HCT-116 colon, in the assay on TK-10 renal and with SK-MEL-5 melanoma was above 100 µM in each case.

Take `O=C(Nc1cccc(-n2cc(-c3ccncc3)c(-c3ccc(O)c(Cl)c3)n2)c1)Nc1cccc(C(F)(F)F)c1`: the GI50 is 1.64 µM with SF-539 CNS; 3.59 µM in the assay on SK-OV-3 ovarian; 1.79 µM in the assay on MALME-3M melanoma; 2.83 µM in the assay with HL-60(TB) leukemia; 2.88 µM in the assay on SNB-19 CNS; 2.11 µM in the assay on LOX IMVI melanoma. In addition, the GI50 with SN12C renal was 2.86 µM; with HCT-116 colon it was 2.05 µM; with TK-10 renal it was 3.29 µM; with SK-MEL-5 melanoma it was 1.59 µM. Moreover, the total growth inhibition concentration (TGI) stood at 5.18 µM in the assay with SF-539 CNS; 23.1 µM with SK-OV-3 ovarian; 6.45 µM with MALME-3M melanoma; 7.49 µM in the assay on HL-60(TB) leukemia; 46.2 µM in the assay with SNB-19 CNS; 5.87 µM in the assay with LOX IMVI melanoma. Also, the concentration for total growth inhibition (TGI) in the assay with SN12C renal was above 100 µM; in the assay with HCT-116 colon, 5.87 µM; in the assay with TK-10 renal it was 9.3 µM; with SK-MEL-5 melanoma, 3.01 µM.

On to `COc1ccc2c(c1)C1(C(=O)N2)C(C#N)=C(c2ccccc2)Nc2c1c(-c1ccccc1)nn2-c1ccccc1` (stereo not given), for which the GI50 with SF-539 CNS is 1.75 µM; in the assay with SK-OV-3 ovarian it was 2.08 µM; with MALME-3M melanoma, 1.73 µM; in the assay on HL-60(TB) leukemia, 3.68 µM; in the assay on SNB-19 CNS, 3.95 µM; with LOX IMVI melanoma it was 1.81 µM. In addition, the GI50 in the assay on SN12C renal was 1.94 µM; with HCT-116 colon, 1.66 µM; in the assay with TK-10 renal, 2.41 µM; with SK-MEL-5 melanoma, 2.4 µM. Moreover, the TGI with SF-539 CNS came out at 3.65 µM; in the assay on SK-OV-3 ovarian, 5.14 µM; in the assay with MALME-3M melanoma, 3.84 µM; in the assay with HL-60(TB) leukemia, 15.4 µM; in the assay on SNB-19 CNS it was 15 µM; with LOX IMVI melanoma, 3.51 µM. Further, the concentration for total growth inhibition (TGI) in the assay with SN12C renal amounted to 3.71 µM; with HCT-116 colon, 3.02 µM; in the assay with TK-10 renal, 7.49 µM; in the assay on SK-MEL-5 melanoma, 6.62 µM.
